Values after ≈ are worked out from the molar mass of the structure shown.
How the values were obtained:
human mGluR5a receptors = biological target: T1, human mGluR5a receptors (Homo sapiens, UniProt P41594); assay: Inhibition of glutamate-induced elevation of intracellular calcium concentration in L(tk-) cells expressing human mGluR5a receptors; assay type: cell-based; conditions: agonist glutamate
T1 construct: expressed in transfected cells; host or cells: L(tk-) cells (mouse fibroblast line)
T1 sequence (P41594 21-1180 isoform P41594-2 limits assumed): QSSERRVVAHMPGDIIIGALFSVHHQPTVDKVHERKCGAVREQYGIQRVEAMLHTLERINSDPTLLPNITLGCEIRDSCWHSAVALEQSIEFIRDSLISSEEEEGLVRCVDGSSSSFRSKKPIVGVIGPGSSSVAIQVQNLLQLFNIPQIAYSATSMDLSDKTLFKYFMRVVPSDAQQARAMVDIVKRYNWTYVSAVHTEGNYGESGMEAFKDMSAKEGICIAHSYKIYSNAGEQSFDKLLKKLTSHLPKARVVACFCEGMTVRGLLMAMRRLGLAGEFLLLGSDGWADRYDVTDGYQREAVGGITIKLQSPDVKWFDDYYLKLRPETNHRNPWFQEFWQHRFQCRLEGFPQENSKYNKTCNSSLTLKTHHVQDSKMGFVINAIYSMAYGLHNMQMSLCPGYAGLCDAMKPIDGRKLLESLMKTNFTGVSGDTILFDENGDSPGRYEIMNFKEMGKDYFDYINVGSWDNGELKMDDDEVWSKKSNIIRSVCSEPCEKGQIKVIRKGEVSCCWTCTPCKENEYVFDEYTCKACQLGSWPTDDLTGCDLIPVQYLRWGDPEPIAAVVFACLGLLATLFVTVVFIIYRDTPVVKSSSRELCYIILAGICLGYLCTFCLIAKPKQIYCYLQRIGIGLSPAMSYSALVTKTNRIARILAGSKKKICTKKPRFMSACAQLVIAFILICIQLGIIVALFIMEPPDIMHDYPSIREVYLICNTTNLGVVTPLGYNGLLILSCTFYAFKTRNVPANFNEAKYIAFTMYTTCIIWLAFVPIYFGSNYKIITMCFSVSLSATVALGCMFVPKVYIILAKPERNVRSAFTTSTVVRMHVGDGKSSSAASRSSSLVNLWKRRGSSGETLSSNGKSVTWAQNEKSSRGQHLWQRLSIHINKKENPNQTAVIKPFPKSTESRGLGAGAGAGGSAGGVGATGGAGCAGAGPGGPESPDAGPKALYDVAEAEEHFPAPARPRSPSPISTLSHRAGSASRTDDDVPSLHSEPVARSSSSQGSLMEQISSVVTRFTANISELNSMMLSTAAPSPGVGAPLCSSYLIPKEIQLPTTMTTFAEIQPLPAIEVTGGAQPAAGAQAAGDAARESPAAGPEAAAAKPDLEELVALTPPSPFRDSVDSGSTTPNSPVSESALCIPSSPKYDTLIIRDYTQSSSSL
Description: This can be determined in vitro, for example, at recombinant human mGluR5, using different procedures like, for example, measurement of the inhibition of the agonist induced elevation of intracellular Ca^2+ concentration in accordance with L. P. Daggett et al., Neuropharm. Vol. 34, pages 871-886 (1995), P. J. Flor et al., J. Neurochem. Vol. 67, pages 58-63 (1996) or by determination to what extent the agonist induced elevation of the inositol phosphate turnover is inhibited as described by T. Knoepfel et al., Eur. J. Pharmacol. Vol. 288, pages 389-392 (1994), L. P. Daggett et al., Neuropharm. Vol. 67, pages 58-63 (1996) and references cited therein. Isolation and expression of human mGluR subtypes are described in U.S. Pat. No. 5,521,297.
Activity of compounds of the present invention was examined by determination to what extent the glutamate-induced elevation of the intracellular calcium concentration in L(tk-) cells expressing human mGluR5a receptors (see L. P. Daggett et al., Neuropharm. Vol. 34, pages 871-886, 1995) is inhibited by utilizing methods as described e.g. by L. P. Daggett et al., Neuropharm. Vol. 34, pages 871-886 (1995) and P. J. Flor et al., J. Neurochem. Vol. 67, pages 58-63 (1996).
The table below represents IC50 values of the inhibition of the glutamate-induced elevation of the intracellular calcium concentration.

[1] = Solubility in Cl-free phosphate buffer (0.067 M), pH 6.8; assay type: physicochemical; conditions: pH 6.8, aqueous buffer
Protocol: Solubility of compounds of the invention was determined in the following buffer: Cl-free phosphate buffer (0.067 M) is made from KH2PO4 solution and titrated to pH 6.8 with NaOH. The table below represents solubility values of compounds of the invention in the above buffer.

SMILES	IC50 (human mGluR5a receptors) [nM]	solubility [1] [µg/mL]
COC(=O)N1CC[C@@H]2[C@H]1CCC[C@@]2(O)C#Cc1cncc(C)c1 [Example 2, (3aR,4S,7aR)-methyl 4-hydroxy-4-((5-methylpyridin-3-yl)ethynyl)octahydro-1H-indole-1-carboxylate]	1100	> 300
COC(=O)N1CC[C@@H]2[C@H]1CCC[C@@]2(O)C#Cc1cccc(C)n1 [Example 4, (3aR,4S,7aR)-methyl 4-hydroxy-4-((6-methylpyridin-2-yl)ethynyl)octahydro-1H-indole-1-carboxylate]	1430	–
COC(=O)N1CC[C@@H]2[C@H]1CCC[C@@]2(O)C#Cc1ccnc(Cl)c1 [Example 5, (3aR,4S,7aR)-methyl 4-((2-chloropyridin-4-yl)ethynyl)-4-hydroxyoctahydro-1H-indole-1-carboxylate]	146	175 (≈ 523 µM)
COC(=O)N1CC[C@@H]2[C@H]1CCC[C@@]2(O)C#Cc1csc(C)n1 [Example 7, (3aR,4S,7aR)-methyl 4-hydroxy-4-((2-methylthiazol-4-yl)ethynyl)octahydro-1H-indole-1-carboxylate]	470	> 300
COC(=O)N1CC[C@@H]2[C@H]1CCC[C@@]2(N)C#Cc1cccc(C)c1 [Example 8, (3aR,4S,7aR)-methyl 4-amino-4-(m-tolylethynyl)octahydro-1H-indole-1-carboxylate]	330	> 300
CCOC(=O)N1CC[C@@H]2[C@H]1CCC[C@@]2(N)C#Cc1cccc(C)c1 [Example 9, (3aR,4S,7aR)-ethyl 4-amino-4-(m-tolylethynyl)octahydro-1H-indole-1-carboxylate]	710	> 300

Continued by falling IC50 (human mGluR5a receptors), values first:

IC50 (human mGluR5a receptors) [nM]	solubility [1] [µg/mL]	SMILES
740	153 (≈ 487 µM)	COC(=O)N1CC[C@@H]2[C@H]1CCC[C@@]2(O)C#Cc1cc(C)ccn1 [Example 6, (3aR,4S,7aR)-methyl 4-hydroxy-4-((4-methylpyridin-2-yl)ethynyl)octahydro-1H-indole-1-carboxylate]
530	> 300	COC(=O)N1CC[C@@H]2[C@H]1CCC[C@@]2(O)C#Cc1ccnc(C)c1 [Example 3, (3aR,4S,7aR)-methyl 4-hydroxy-4-((2-methylpyridin-4-yl)ethynyl)octahydro-1H-indole-1-carboxylate]
16	103 (≈ 309 µM)	COC(=O)N1CC[C@@H]2[C@H]1CCC[C@@]2(O)C#Cc1cccc(Cl)c1 [Example 1, (3aR,4S,7aR)-methyl 4-((3-chlorophenyl)ethynyl)-4-hydroxyoctahydro-1H-indole-1-carboxylate]
